System: T1, TF-Silα-Strep (silicatein-α, Silα)
T1 construct: trigger factor fused at N-terminus, Strep-tag II at C-terminus; recombinant, StrepTrap purified
Experiment: UV-VIS spectrophotometric silyl ether hydrolysis, net initial rates
Type: biochemical
Settings: 10% v/v 1,4-dioxane, 50 mM Tris, 100 mM NaCl, pH 8.5
Text: UV-VIS spectrophotometric silyl ether hydrolysis, net initial rates on TF-Silα-Strep (silicatein-α, Silα)

Structure (SMILES)	Km [µM]
CC(C)(C)[Si](C)(C)Oc1ccc([N+](=O)[O-])cc1 [compound 1, tert-butyldimethyl(4-nitrophenoxy)silane]	44.4 ± 11.9
CC(C)C(C)(C)[Si](C)(C)Oc1ccc([N+](=O)[O-])cc1 [compound 2, 2]	24.1 ± 5
CC(C)[Si](Oc1ccc([N+](=O)[O-])cc1)(C(C)C)C(C)C [compound 3, 3]	20.4 ± 8.13
Cc1cc([N+](=O)[O-])ccc1O[Si](C)(C)C(C)(C)C [compound 4, tert-Butyldimethyl(2-methyl-4-nitrophenoxy)silane]	72.5 ± 15.3
Cc1cc(O[Si](C)(C)C(C)(C)C)ccc1[N+](=O)[O-] [compound 5, tert-Butyldimethyl(3-methyl-4-nitrophenoxy)silane]	34.6 ± 4.11
